Assay results reported in publication PMC5335257, “Promoting in vivo remyelination with small molecules: a neuroreparative pharmacological treatment for Multiple Sclerosis” (Scientific Reports, 2017).

Legend:
[1] = Pharmacokinetics in plasma and brain after single i.p. or oral dose; type: in vivo, male BALB/c mice; conditions: for AUCinf / AUClast / Cmax / MRT inf / MRT last / Tmax / AUC(0-inf) / AUC(0-t): male BALB/c mice; for Cmax / MRT inf / MRT last / Tmax / AUC(0-inf) / AUC(0-t): mouse
[2] = set-up: method as in PMID 23077723, PMID 25264825; conditions: cited from earlier work
[3] = test system: corpus callosum of LPC-injected mice; assay: In vivo remyelination, LPC demyelination model; set-up: species or system C57/BL6 male mice; conditions: 10 mg/kg i.p. from 9 dpi
Experimental: Anaesthetized 8 week old C57/BL6 male mice were injected with 2 μl of 1% LPC through a hole drilled in the skull at stereotactic coordinates 1.2 mm posterior, 0.5 mm lateral, 1.4 mm deep to the bregma over 4 minutes using a 30-gauge needle attached to a Hamilton syringe, driven by a KD Scientific Nano pump, for 4 minutes to reduce backflow as previously described. At 9 days post injection (dpi), the first intraperitoneal dose of PDE7-GSK3 inhibitors (VP1.15 or VP3.15; 10 mg/kg of animal) was injected using the same solution detailed above for the cuprizone model. Each inhibitor was injected into a group of 10 mice and another group of 10 mice was injected with the vehicle. Two days after, a second dose was injected (11 dpi) and 5 mice of each group were perfused at 14 dpi with 4% PFA and 2% glutaraldehyde (GTA) in phosphate buffer. The remaining 5 animals of each group received a third injection of inhibitors (15 dpi) and were perfused at 21 dpi. A control group of 3 non-lesioned and non-treated mice was used as control. Fixed brains were post-fixed in 1% GTA for 7 days and then coronally cut into 1 mm slices. The slices containing the injected areas were selected and the area of interest was cut and processed for electron microscopy into a resin (Araldite/TAAB 812 Resin Kit, TAAB) following manufacturer instructions.
In order to detect the injured areas for investigation, sagittal semi-thin sections (1 μm) were cut using an ultramicrotome (Leica) and stained with toluidine blue. Ultra-thin sections (60 nm thick) were cut and stained in uranyl acetate and lead citrate and the ultrastructure was analysed taking images with a GatanOrius CCD camera coupled to a transmission electronic microscope (Philips CM120). The percentage of myelinated fibres and the thickness of myelin sheaths were examined. The mean percentage of myelinated fibres was measured from 10 fields per animal. Grids were overlaid onto the images and all axons intersecting with the grid lines were counted as myelinated or not[83][84]. The thickness of myelin around myelinated fibres was expressed as a g-ratio (axon perimeter divided by myelinated fibre perimeter) using ImageJ by tracing around a minimum of 100 individual fibres per mouse, using a pen and electronic pad (Bamboo pad, Wacom). To select the fibres randomly, a grid composed by 8 μm[2] squares was overlaid onto the images and fibres in alternate squares were measured. Data were expressed as the mean ± SEM.

[4] = i.p. 10 mg.kg^−1 single dose, brain
[5] = ip, i.p. 10 mg.kg^−1 single dose, brain
[6] = ip, i.p. 10 mg.kg^−1 single dose, plasma
[7] = po, p.o. 50 mg.kg^−1 single dose, brain
[8] = po, p.o. 50 mg.kg^−1 single dose, plasma
[9] = p.o. 50 mg.kg^−1 single dose, brain

For `c1ccc(-c2n/c(=N/CCN3CCOCC3)sn2-c2ccccc2)cc1` [VP3.15], the AUCinf [1, 4] was 1506.00 ng·h/g, the AUClast [1, 4] was 1489.25 ng·h/g and the “oral bioavailability and brain penetration” value ([1]; mice, after oral and i.p. administration) was “shows oral bioavailability and brain penetration”. The Cmax [1, 5] was 1980 ng/g, the MRT inf [1, 5] was 1.25 h and the MRT last [1, 5] was 1.21 h. For the same molecule, the Tmax [1, 5] was 0.08 h, the AUC(0-inf) [1, 6] was 2000 ng·h/mL and the AUC(0-t) [1, 6] was 1960 ng·h/mL. For the same molecule, the Cmax [1, 6] was 1990 ng/mL, the MRT inf [1, 6] was 0.91 h and the MRT last [1, 6] was 0.82 h. The Tmax [1, 6] was 0.25 h, the Cmax [1, 7] was 497 ng/g and the MRT inf [1, 7] was 4.01 h. The MRT last [1, 7] was 2.07 h, the Tmax [1, 7] was 0.5 h and the AUC(0-inf) [1, 8] was 2380 ng·h/mL. The AUC(0-t) [1, 8] was 2290 ng·h/mL, the Cmax [1, 8] was 881 ng/mL and the MRT inf [1, 8] was 1.86 h. For the same molecule, the MRT last [1, 8] was 1.64 h, the Tmax [1, 8] was 1 h and the AUCinf [1, 9] was 1794.28 ng·h/g. For the same molecule, the AUClast [1, 9] was 1375.08 ng·h/g, the emetic side effects [2] was “without emetic side effects” and the “thickness of myelin sheaths (G-ratio) vs untreated demyelinated control” value [3] was “increased the thickness”. For the same molecule, the “percentage of myelinated callosal fibers vs vehicle” value ([3]; analysed at 14 or 21 dpi) was “did not show any effect”.
